Patent US20240122887A1, “THERAPEUTIC USES OF L-4-CHLOROKYNURENINE” (VISTAGEN THERAPEUTICS, INC., priority 2015, published 2024)
Each block holds one compound with its values, some of them ahead of it.

Key:
[1] = cited from earlier work
[2] = biological target: NMDA receptor glycine B (GlyB) coagonist site (Homo sapiens, UniProt Q05586); settings: vs naturally occurring kynurenic acid; cited from earlier work
[3] = Phase 1b clinical study, plasma pharmacokinetics after oral L-4-chlorokynurenine (LC-MS/MS); settings: human plasma
Description: (§1) Subjects were randomized into one of three cohorts (360, 1,080, and 1,440 mg) and received a daily oral dose for 14 consecutive days. […] However, a total of 50 subjects were enrolled in this study. […] Forty-six subjects completed the study per protocol.
(§2) Blood was collected in 6-mL lithium heparin Vacutainer tubes. Samples were centrifuged, and the plasma was separated from the cells and frozen within 30 minutes after centrifugation. Centrifuged samples were placed on ice until they were placed in the freezer. Plasma samples were stored frozen at approximately −20° C. until their shipment to a contractor for analysis.
(§3) Baseline samples (0 minutes) were collected before the drug was administered on Day 1 and on Day 14. Samples were then collected at 0.5, 1, 1.5, 2, 4, 6, 8, 12, and 24 hours after dosing on Day 1 and Day 14.
(§4) Both assays used a plasma sample volume of 50.0 μg/mL.

[4] = tested on: patients with a diagnosis of MDD; assay: Treatment of major depressive disorder, HDRS / MADRS (Example 3); assay type: in vivo, human; settings: 1,080 or 1,440 mg/day orally for 2 weeks
Description: Twenty-five patients, both male and female, ages 18 to 65, with a diagnosis of MDD are treated with either L-4-chlorokynurenine (1,080 or 1,440 mg/day given orally) for 2 weeks, similar in design to similar studies. [Ibrahim et al. 2012, Zarate et al. 2013, Zarate et al. 2006, Zarate et al. 2005.] […] [Montgomery et al. 1979] Additional indicators of therapeutic efficacy for a given patient could also be the proportion of subjects achieving remission (HDRS≤7) and response (≥50% reduction from baseline in HDRS total score); change from baseline in Hamilton Anxiety Rating Scale (HAM-A) [Hamilton 1959], Columbia Suicide Severity Rating Scale (C-SSRS) total scores [Posner et al. 2011], as well as other measures of mood or psychological states, for example Beck Depression Inventory (BDI) [Beck et al., 1974], the Visual Analogue Scale (VAS) [Aitken 1969], the Brief Psychiatric Rating Scale (BPRS) [Overall et al. 1962], the Clinician Administered Dissociative Scale (CADSS) [Bremner et al. 1998] and the Young Mania Rating Scale (YMRS) [Young et al. 1978].

[5] = tested on: three animal models of peripheral tissue inflammation and nerve injury; assay: Animal models of peripheral tissue inflammation and nerve injury; assay type: in vivo
[6] = tested on: capsaicin-induced hyperalgesia; assay: Antihyperalgesic effect on capsaicin-induced hyperalgesia, VAS pain assessment, Phase 1b study; assay type: in vivo, human
Description: On Day 1 and Day 14 of the clinical study, two intradermal injections of 250 μg of capsaicin were injected sequentially into the volar aspect of alternate forearms to produce burning pain, secondary hyperalgesia, and a flare. The capsaicin USP (United States Pharmacopeia) was prepared according to the site's standard procedure and dissolved in 20% cyclodextrin at a concentration of 10 mg/mL. The first capsaicin injection in one forearm was given 1 hour after oral administration of L-4-chlorokynurenine or placebo, and the second capsaicin injection was given in the other forearm 2 hours after the administration of L-4-chlorokynurenine or placebo. The neurosensory testing began immediately at each capsaicin injection. The serial pain assessments using a 100-mm visual analog scale (VAS) occurred at preinjection and 0, 5, 10, 15, 30, 45, and 60 minutes after each capsaicin injection. The examiner asked the subject to rate the intensity by using the VAS of the spontaneous pain and elicited pain from the application of a 5.18 von Frey hair, 40° C. probe, and gentle stroking with a 1-inch foam brush. The VAS consisted of a 100-mm line with “no pain” written at the 0-mm end and the “worst imaginable pain” written at the 100-mm end. The distance in millimeters provided the pain measurement. […] At least eight determinations of the hyperalgesic area borders were made using the same assessments and starting at different angles. Additionally, subjects were asked to rate the pain intensity of a 1-minute 45° C. heat stimulus (brief thermal stimulation) applied to the anterior thigh at 4.5 hours (±5 minutes) after study drug administration, then every 30 minutes (±5 minutes) through 6 hours after study drug administration. A radiant temperature probe was applied to fix the skin temperature at 36° C. during the pain assessments. Subjects used the VAS for all pain assessments. All study assessment time points were anchored to Time 0, the time of study drug administration. […]

[7] = tested on: patients with obsessive-compulsive disorder; assay: Treatment of obsessive-compulsive disorder, OCD-VAS / Y-BOCS; assay type: in vivo, human; settings: about 20 to about 2,000 mg/day
Description: Patients with obsessive-compulsive disorder (OCD) are treated with L-4-chlorokynurenine to reduce OCD symptoms. […] The dose of L-4-chlorokynurenine is selected from about 20 mg/day up to about 2,000 mg/day, more preferably about 300 mg/day to about 1,500 mg/day and more preferably about 700 mg/day to about 1,200 mg/day.

[8] = tested on: patients with chronic tinnitus; assay: Treatment of tinnitus, TQ / SF-36 / audiometric parameters (Example 5); assay type: in vivo, human; settings: daily oral dose escalated 180, 720, 1440 mg/day
Description: One hundred male or female patients between 20-65 years of age with mon- or binaural chronic tinnitus lasting for at least 3-months are enrolled in the study. Patients are randomized into a drug and placebo groups, baseline psychometric and health measurements are taken, followed by blind administration of a daily single oral dose for 14-days of either L-4-chlorokynurenine (initial dose of 180 mg) or placebo. Subsequent psychometric and health measurements are taken at 3-, 7-, and 14-days post (prior to next drug administration) drug administration. At 14, and 28 days the dose of AV-101 is increased to 720 and 1440 mg/day respectively. At 42 and 70 days, all patients are given the panel of psychometric and health measurements. […]
Primary success measures are a statistically significant difference between the mean TQ scores of L-4-chlorokynurenine and placebo groups. […] Student t-test for independent samples or the Mann-Whitney test at each time point are used to assess the statistical significance of the quantitative data. The significance of the qualitative data is assessed with chi-square test or the Fisher exact test. To assess improvement over time and dose, TQ and secondary measurements are evaluated using Friedman Variance Analysis and similar tools for variance analysis.

dopaminergic neurons = settings: brains of rats; cited from earlier work
[9] = human, in vivo, po
Description: as §1, §2, §3, §4

SMILES: O=C(O)c1cc(O)c2ccc(Cl)cc2n1 [7-chlorokynurenic acid]
Crossing of the blood-brain barrier ([1]; in vivo): does not cross the blood-brain barrier
Potency and selectivity relative to endogenous KYNA [2]: about 20 ×
Mean 7-chlorokynurenic acid AIC0-t ([3]; Day 1, after 1,440-mg oral dose of L-4-chlorokynurenine): 985 ng·h/mL
Mean 7-chlorokynurenic acid AIC0-t ([3]; Day 1, after lowest oral dose (360 mg) of L-4-chlorokynurenine): 156 ng·h/mL
Mean 7-chlorokynurenic acid Cmax and AIC0-t on Day 14 compared with Day 1 ([3]; once-daily oral doses of L-4-chlorokynurenine for 14 days): slightly lower on Day 14

Mean L-4-chlorokynurenine AIC0-t [9]: 196000 ng·h/mL
Mean L-4-chlorokynurenine Cmax and AIC0-t on Day 14 compared with Day 1 [9]: slightly lower on Day 14
Mean t1/2 of L-4-chlorokynurenine [9]: 1.64 to 1.82 h
SMILES: Nc1cc(Cl)ccc1C(=O)CC(N)C(=O)O [L-4-chlorokynurenine]
HDRS and/or MADRS total scores (overall depressive symptomatology) [4]: significant decrease
Antihyperalgesic action in animal models [5]: potent antihyperalgesic actions
Least squares means of the AUPC for allodynia pain, mechanical hyperalgesia pain and heat hyperalgesia pain vs placebo ([6]; 1,080 mg (Cohort 2)): consistent decrease
Secondary efficacy endpoints (AUPC spontaneous pain, elicited pain von Frey hair, 40° C. probe), treatment vs placebo ([6]; 120 to 180 min Day 1, 60 to 180 min Days 1 and 14): no significant changes
Area under the pain time curve (AUPC) for spontaneous pain, treatment vs placebo (primary efficacy endpoint) ([6]; each dose level, 120 to 180 minutes after dosing on Day 14): no significant change
Access to the central nervous system ([1]; after oral or parenteral administration): readily gains access to the central nervous system
OCD symptoms (OCD-VAS, Y-BOCS) [7]: Patients show improvement
Symptoms of tinnitus (TQ, SF-36) [8]: show improvement
Firing rate and burst firing activity of dopaminergic neurons (dopaminergic neurons): increase
